Assay results published in US9833455B2, “Preparation and methods of use for ortho-aryl 5-membered heteroaryl-carboxamide containing multi-targeted kinase inhibitors” (Spacefill Enterprises LLC, priority 2011, dated 2017).
Like-named read-outs stand apart in the source and are kept apart here.

Key:
Experiment in all cases: Reaction Biology P33 radiolabeled kinase assay, IC50 and time dependence
Format in all cases: biochemical
ARAF = molecular target: T1, ARAF (Homo sapiens, UniProt P10398); details: for IC50: ATP 10 uM, read-out: Compound IC50* ARAF
T1 construct: purchased Reaction Biology Inc (contract assay)
T1 sequence (P10398 1-606): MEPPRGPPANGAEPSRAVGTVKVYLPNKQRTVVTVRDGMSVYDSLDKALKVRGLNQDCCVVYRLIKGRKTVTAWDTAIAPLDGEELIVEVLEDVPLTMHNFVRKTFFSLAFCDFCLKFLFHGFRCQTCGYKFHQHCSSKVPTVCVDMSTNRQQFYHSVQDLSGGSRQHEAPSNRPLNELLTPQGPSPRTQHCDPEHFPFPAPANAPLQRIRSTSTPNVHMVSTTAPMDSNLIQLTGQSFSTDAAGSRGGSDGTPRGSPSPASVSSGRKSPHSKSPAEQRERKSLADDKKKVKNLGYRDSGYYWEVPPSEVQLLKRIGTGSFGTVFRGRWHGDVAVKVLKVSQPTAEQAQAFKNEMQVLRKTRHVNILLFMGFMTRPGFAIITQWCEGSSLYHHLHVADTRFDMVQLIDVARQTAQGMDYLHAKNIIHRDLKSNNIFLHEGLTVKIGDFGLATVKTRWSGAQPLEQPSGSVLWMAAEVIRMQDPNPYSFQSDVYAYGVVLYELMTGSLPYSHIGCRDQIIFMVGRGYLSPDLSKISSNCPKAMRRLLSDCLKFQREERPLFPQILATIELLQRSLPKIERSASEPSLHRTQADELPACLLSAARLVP
Method: (§1) “Inhibiting kinase activity” means to decrease the production of an phosphor-peptide by a particular kinase that can be separated by analytical techniques. For example, a comprehensive platform of kinase, protease, phosphatase and epigenetic assays that utilizes cutting-edge microfluidics and informatics tools to provide accurate and rapid results. Profiling data in this application were determined using these techniques at Nanosyn Inc. IC50 data were provided by Reaction Biology Inc using a P33 radiolabeled kinase assay.
(§2) The observation of potency and isoform selectivity with time-dependency for PI3K-γ appears to be unprecedented in the literature. In addition, these activities combined with inhibition of p38-α, Raf-1, DDR and CSF-1R, would be complimentary and potentially synergistic activities for both the treatment of certain inflammation based conditions and cancers.

Aurora A = molecular target: T2, Aurora A (Homo sapiens, UniProt O14965); details: for IC50: ATP 10 uM, read-out: Compound IC50* Aurora A
T2 construct: purchased Reaction Biology Inc (contract assay)
T2 sequence (O14965 1-403): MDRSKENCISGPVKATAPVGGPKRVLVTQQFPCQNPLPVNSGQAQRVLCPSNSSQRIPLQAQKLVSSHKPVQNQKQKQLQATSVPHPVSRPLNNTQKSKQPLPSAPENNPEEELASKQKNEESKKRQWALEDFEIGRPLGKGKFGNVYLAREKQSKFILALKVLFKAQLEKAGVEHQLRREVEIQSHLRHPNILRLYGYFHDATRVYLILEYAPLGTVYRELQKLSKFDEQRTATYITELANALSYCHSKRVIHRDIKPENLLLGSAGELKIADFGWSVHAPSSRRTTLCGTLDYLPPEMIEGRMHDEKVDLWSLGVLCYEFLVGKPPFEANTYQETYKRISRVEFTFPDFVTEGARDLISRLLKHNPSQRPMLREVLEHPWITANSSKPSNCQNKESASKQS
Method: as §1, §2

FMS = FMS (Homo sapiens, UniProt P07333); details: for IC50: ATP 10 uM, read-out: Compound IC50* FMS
Chain of FMS (P07333 20-972): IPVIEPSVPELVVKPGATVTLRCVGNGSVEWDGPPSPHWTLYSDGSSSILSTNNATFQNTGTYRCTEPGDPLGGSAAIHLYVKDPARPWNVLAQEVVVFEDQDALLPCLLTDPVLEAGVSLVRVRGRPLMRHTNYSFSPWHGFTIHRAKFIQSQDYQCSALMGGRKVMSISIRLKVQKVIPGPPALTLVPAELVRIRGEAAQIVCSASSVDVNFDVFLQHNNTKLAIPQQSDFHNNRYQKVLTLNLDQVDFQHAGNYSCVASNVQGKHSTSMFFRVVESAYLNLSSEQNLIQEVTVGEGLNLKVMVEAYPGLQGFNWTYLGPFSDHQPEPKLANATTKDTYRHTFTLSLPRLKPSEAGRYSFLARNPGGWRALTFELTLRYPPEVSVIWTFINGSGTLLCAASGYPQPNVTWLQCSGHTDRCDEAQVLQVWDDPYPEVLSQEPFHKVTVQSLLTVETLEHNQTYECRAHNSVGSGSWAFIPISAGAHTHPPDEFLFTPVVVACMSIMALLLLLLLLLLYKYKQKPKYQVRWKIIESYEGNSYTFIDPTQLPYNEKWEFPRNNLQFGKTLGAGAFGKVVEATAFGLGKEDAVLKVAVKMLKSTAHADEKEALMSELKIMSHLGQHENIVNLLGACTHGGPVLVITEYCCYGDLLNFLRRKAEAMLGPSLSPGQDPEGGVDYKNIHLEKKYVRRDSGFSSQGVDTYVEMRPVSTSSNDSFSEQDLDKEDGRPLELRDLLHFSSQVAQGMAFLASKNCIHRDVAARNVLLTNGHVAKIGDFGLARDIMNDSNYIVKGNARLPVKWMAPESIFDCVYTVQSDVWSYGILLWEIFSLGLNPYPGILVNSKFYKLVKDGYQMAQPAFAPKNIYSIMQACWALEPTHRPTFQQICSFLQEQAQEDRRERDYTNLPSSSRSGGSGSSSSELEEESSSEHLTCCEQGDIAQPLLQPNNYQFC
Method: as §1, §2

P38b/MAPK11 = molecular target: T3, P38b/MAPK11 (Homo sapiens, UniProt Q15759); details: for IC50: ATP 10 uM, read-out: Compound IC50* P38b/MAPK11
T3 construct: purchased Reaction Biology Inc (contract assay)
T3 sequence (Q15759 whole entry): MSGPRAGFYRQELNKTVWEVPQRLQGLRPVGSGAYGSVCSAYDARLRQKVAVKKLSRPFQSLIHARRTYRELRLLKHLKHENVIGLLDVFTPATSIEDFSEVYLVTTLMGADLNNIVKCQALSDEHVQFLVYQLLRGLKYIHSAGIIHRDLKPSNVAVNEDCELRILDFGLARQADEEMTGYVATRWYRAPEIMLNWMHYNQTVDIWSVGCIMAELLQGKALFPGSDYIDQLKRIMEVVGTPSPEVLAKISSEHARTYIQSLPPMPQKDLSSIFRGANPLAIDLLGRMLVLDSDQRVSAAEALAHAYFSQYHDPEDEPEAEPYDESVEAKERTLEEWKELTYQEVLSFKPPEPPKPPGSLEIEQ
Method: as §1, §2

PDGFR-α = PDGFR-α (Homo sapiens, UniProt P16234); details: for IC50: ATP 10 uM, read-out: Compound IC50* PDGFR-α
Method: as §1, §2

PDGFR-β = PDGFR-β (Homo sapiens, UniProt P09619); details: for IC50: ATP 10 uM, read-out: Compound IC50* PDGFR-β
Chain of PDGFR-β (P09619 33-1106): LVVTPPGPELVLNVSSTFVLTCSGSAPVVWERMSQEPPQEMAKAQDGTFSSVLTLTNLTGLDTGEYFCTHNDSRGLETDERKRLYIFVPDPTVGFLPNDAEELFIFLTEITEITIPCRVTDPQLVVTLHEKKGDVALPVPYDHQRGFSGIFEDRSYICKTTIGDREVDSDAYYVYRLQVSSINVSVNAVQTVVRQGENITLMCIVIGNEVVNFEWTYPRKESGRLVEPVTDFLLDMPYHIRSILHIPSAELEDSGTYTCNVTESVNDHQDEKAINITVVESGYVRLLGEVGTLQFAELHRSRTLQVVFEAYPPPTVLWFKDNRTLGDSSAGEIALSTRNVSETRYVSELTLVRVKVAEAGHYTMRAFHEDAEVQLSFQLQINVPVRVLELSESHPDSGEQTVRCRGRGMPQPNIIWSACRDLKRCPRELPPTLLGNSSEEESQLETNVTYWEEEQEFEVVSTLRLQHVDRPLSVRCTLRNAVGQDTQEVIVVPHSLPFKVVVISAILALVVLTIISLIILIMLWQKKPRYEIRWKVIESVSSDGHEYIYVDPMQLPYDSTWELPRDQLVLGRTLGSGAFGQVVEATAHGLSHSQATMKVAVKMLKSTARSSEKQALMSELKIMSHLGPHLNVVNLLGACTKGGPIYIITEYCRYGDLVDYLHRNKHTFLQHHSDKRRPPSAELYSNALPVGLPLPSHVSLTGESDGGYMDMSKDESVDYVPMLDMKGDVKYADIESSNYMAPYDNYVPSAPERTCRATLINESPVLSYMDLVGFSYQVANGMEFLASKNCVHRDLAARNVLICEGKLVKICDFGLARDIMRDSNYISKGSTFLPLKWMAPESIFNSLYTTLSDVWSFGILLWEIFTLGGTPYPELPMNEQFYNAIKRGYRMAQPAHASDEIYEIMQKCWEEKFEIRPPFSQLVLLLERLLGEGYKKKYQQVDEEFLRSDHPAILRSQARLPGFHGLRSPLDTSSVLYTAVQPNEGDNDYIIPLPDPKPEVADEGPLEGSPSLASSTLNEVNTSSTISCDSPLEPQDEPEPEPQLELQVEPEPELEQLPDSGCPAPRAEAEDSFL
Method: as §1, §2

PI3K-β = molecular target: T4, PI3K-β (Homo sapiens, UniProt P42338); details: for IC50: ATP 10 uM, read-out: Compound IC50* PI3K-β
T4 construct: purchased Reaction Biology Inc (contract assay)
T4 sequence (P42338 whole entry): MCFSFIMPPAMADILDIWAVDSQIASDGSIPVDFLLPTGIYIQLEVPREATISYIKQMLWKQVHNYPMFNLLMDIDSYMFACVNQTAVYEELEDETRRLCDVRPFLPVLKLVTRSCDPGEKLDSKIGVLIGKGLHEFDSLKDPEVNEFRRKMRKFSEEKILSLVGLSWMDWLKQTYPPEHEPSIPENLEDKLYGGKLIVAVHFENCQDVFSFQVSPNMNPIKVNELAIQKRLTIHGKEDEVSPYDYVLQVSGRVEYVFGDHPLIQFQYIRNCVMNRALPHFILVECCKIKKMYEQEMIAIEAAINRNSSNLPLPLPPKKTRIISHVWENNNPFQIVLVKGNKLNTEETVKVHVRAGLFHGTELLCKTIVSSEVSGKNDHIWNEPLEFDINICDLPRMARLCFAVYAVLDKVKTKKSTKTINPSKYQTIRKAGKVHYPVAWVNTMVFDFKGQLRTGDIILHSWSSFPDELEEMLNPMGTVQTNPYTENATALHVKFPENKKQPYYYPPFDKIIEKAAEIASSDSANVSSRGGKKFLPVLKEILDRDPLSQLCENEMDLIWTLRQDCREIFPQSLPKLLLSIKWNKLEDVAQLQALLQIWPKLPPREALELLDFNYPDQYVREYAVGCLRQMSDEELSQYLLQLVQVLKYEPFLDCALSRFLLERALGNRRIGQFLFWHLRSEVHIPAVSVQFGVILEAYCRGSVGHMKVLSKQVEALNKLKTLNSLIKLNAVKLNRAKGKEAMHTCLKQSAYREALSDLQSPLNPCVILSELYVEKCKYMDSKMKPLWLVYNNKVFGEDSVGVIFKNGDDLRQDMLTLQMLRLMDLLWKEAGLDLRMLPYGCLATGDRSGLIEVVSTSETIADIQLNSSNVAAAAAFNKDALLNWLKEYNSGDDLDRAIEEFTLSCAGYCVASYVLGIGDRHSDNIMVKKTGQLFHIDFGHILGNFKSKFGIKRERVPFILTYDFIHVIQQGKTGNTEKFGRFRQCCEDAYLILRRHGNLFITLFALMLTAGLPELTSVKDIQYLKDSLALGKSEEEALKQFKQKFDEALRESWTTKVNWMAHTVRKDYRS
T4 sequence (P27986 whole entry partner): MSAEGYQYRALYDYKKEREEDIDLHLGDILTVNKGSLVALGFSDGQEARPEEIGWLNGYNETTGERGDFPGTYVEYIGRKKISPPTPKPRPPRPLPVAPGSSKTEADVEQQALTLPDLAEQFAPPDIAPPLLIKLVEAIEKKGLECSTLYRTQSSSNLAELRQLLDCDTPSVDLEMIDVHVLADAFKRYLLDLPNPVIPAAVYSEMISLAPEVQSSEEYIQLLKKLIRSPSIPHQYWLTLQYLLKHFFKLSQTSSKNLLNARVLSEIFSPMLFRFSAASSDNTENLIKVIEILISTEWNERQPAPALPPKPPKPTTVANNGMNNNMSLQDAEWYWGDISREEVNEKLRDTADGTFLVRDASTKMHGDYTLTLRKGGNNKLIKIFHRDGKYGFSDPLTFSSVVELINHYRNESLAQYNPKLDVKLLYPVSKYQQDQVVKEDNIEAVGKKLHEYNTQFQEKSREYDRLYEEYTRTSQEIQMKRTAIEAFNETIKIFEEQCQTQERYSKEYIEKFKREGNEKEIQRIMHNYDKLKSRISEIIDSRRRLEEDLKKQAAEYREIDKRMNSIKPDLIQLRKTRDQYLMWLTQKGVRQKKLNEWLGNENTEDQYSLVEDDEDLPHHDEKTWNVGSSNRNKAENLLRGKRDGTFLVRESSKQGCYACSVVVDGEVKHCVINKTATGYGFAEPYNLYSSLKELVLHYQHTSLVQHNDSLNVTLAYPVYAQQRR
Method: as §1, §2

RAF1 = molecular target: T5, RAF1 (Homo sapiens, UniProt P04049); details: for IC50: ATP 10 uM, read-out: Compound IC50* RAF1
T5 construct: literature Ambit Biosciences
T5 sequence (P04049 whole entry): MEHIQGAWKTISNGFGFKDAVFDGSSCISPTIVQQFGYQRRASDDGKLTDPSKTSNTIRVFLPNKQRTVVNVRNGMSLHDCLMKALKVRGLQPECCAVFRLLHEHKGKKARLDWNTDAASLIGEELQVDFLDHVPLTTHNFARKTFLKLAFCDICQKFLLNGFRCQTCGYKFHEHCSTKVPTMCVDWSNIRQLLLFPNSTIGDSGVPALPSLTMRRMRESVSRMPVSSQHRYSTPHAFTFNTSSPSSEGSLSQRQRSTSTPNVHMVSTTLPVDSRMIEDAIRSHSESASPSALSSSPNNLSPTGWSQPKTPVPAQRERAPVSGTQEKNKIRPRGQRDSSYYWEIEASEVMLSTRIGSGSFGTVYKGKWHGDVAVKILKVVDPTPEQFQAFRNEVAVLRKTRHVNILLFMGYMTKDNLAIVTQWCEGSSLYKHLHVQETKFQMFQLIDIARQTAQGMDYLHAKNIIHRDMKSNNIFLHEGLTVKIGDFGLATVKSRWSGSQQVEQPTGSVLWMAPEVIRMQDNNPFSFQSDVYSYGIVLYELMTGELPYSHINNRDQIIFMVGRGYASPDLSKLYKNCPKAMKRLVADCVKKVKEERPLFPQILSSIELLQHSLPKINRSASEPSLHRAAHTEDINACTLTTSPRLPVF
Method: as §1, §2

ROS/ROS1 = molecular target: T6, ROS/ROS1 (Homo sapiens, UniProt P08922); details: for IC50: ATP 10 uM, read-out: Compound IC50* ROS/ROS1
T6 construct: purchased Reaction Biology Inc (contract assay)
Method: as §1, §2

TNK1 = molecular target: T7, TNK1 (Homo sapiens, UniProt Q13470); details: for IC50: ATP 10 uM, read-out: Compound IC50* TNK1
T7 construct: purchased Reaction Biology Inc (contract assay)
T7 sequence (Q13470 1-666): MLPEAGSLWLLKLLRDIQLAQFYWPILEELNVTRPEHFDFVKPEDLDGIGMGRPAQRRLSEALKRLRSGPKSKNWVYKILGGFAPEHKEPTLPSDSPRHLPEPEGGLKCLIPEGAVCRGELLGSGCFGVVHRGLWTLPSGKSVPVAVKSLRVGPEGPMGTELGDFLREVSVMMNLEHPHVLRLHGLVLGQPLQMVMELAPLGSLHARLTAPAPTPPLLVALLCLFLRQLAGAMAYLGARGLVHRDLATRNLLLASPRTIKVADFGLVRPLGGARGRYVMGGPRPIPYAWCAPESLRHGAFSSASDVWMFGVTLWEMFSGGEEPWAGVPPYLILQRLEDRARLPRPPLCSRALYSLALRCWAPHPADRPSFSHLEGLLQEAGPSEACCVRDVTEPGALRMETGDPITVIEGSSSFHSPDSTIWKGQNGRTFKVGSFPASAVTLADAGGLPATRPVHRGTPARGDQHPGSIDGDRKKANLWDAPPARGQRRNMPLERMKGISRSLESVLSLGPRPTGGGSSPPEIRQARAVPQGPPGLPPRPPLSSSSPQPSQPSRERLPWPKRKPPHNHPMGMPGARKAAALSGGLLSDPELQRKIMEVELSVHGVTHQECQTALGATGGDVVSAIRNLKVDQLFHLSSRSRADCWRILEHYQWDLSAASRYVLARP
Method: as §1, §2

c-Kit = molecular target: T8, c-Kit (Homo sapiens, UniProt P10721); details: for IC50: ATP 10 uM, read-out: Compound IC50* c-Kit
T8 construct: purchased Reaction Biology Inc (contract assay)
Method: as §1, §2

## Cc1ccc(NC(=O)c2nc(S(C)(=O)=O)[nH]c2-c2ccc(F)cc2)cc1Nc1nccc(-c2cccnc2)n1 [Inhibitor I-14, 3-(4-(pyridin-3-yl)-pyrimidinyl-2-yl)amino-4-methyl-analine, 5-(4-Fluorophenyl)-2-(methylsulfonyl)-1H-imidazole-4-carboxamide]
ARAF; 15 vs 60 Min preincubation
  Time Dependence Observed? ARAF: Yes
ARAF; preincubation 15 Min
  IC50: 1.39 µM
ARAF; preincubation 60 Min
  IC50: 1.3 µM
Aurora A; 15 vs 60 Min preincubation
  Time Dependence Observed? Aurora A: No
Aurora A; preincubation 15 Min
  IC50: 2.74 µM
Aurora A; preincubation 60 Min
  IC50: 2.63 µM
FMS; 15 vs 60 Min preincubation
  Time Dependence Observed? FMS: No
FMS; preincubation 15 Min
  IC50: 0.22 µM
FMS; preincubation 60 Min
  IC50: 0.24 µM
P38b/MAPK11; 15 vs 60 Min preincubation
  Time Dependence Observed? P38b/MAPK11: No
P38b/MAPK11; preincubation 15 Min
  IC50: 1.02 µM
P38b/MAPK11; preincubation 60 Min
  IC50: 1.08 µM
PDGFR-α; 15 vs 60 Min preincubation
  Time Dependence Observed? PDGFR-α: No
PDGFR-α; preincubation 15 Min
  IC50: 0.178 µM
PDGFR-α; preincubation 60 Min
  IC50: 0.342 µM
PDGFR-β; 15 vs 60 Min preincubation
  Time Dependence Observed? PDGFR-β: No
PDGFR-β; preincubation 15 Min
  IC50: 2.01 µM
PDGFR-β; preincubation 60 Min
  IC50: 2.51 µM
PI3K-β; 15 vs 60 Min preincubation
  Time Dependence Observed? PI3K-β: Yes
PI3K-β; preincubation 15 Min
  IC50: 12.6 µM
PI3K-β; preincubation 60 Min
  IC50: 2.91 µM
RAF1; 15 vs 60 Min preincubation
  Time Dependence Observed? RAF1: Yes
RAF1; preincubation 15 Min
  IC50: 0.0965 µM
RAF1; preincubation 60 Min
  IC50: 0.0813 µM
ROS/ROS1; 15 vs 60 Min preincubation
  Time Dependence Observed? ROS/ROS1: No
ROS/ROS1; preincubation 15 Min
  IC50: 1.25 µM
ROS/ROS1; preincubation 60 Min
  IC50: 1.28 µM
TNK1; 15 vs 60 Min preincubation
  Time Dependence Observed? TNK1: No
TNK1; preincubation 15 Min
  IC50: 0.21 µM
TNK1; preincubation 60 Min
  IC50: 0.241 µM
c-Kit; 15 vs 60 Min preincubation
  Time Dependence Observed? c-Kit: No
c-Kit; preincubation 15 Min
  IC50: 0.772 µM
c-Kit; preincubation 60 Min
  IC50: 0.987 µM
